Measured values published in the kinase profiling compilation of Christmann-Franck et al. (2016).

Columns and labels:
Experiment in all cases: KINOMEscan competition binding
Settings in all cases: compound 10.0 µM; call rule not given here
PKMYT1 (human) = PKMYT1 (human) (UniProt Q99640)
MAP3K4 (human) = MAP3K4 (human) (UniProt Q9Y6R4)
BMPR1A (human) = BMPR1A (human) (UniProt P36894)
LIMK1 (human) = LIMK1 (human) (UniProt P53667)
EPHA7 (human) = EPHA7 (human) (UniProt Q15375)
PAK4 (human) = PAK4 (human) (UniProt O96013)
STK32B (human) = STK32B (human) (UniProt Q9NY57)
ADCK4 (human) = ADCK4 (human) (UniProt Q96D53)
[1] = target: JAK1 JH2 pseudokinase (human) (UniProt P23458)
AKT1 (human) = AKT1 (human) (UniProt P31749)
PIM1 (human) = PIM1 (human) (UniProt P11309)
FGFR1 (human) = FGFR1 (human) (UniProt P11362)
MAPK14 (human) = MAPK14 (human) (UniProt Q16539)
Chain of MAPK14 (human) (Q16539 whole entry, looked up): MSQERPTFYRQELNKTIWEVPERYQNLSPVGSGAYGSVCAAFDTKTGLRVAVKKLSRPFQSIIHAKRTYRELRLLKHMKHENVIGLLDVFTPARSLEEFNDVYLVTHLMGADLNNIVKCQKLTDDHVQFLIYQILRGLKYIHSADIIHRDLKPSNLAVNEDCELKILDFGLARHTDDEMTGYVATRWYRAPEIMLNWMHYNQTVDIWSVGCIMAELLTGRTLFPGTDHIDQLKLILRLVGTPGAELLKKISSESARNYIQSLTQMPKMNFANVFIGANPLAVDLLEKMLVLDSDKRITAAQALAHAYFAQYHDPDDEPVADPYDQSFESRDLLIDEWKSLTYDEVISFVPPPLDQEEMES

ROS1 (human) = ROS1 (human) (UniProt P08922)
PAK1 (human) = PAK1 (human) (UniProt Q13153)
PIM2 (human) = PIM2 (human) (UniProt Q9P1W9)
Chain of PIM2 (human) (Q9P1W9 whole entry, looked up): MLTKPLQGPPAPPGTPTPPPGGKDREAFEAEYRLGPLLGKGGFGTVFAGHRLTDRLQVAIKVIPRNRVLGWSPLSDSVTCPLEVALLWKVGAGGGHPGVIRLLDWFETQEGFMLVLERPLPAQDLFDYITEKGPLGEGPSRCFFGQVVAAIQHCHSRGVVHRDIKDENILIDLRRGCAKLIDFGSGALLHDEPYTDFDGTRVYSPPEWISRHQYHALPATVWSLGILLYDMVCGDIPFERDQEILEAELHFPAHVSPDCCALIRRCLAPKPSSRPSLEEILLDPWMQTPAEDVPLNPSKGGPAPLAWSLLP

CAMK2D (human) = CAMK2D (human) (UniProt Q13557)
EPHA6 (human) = EPHA6 (human) (UniProt Q9UF33)
DMPK (human) = DMPK (human) (UniProt Q09013)
ACVR1B (human) = ACVR1B (human) (UniProt P36896)
STK32C (human) = STK32C (human) (UniProt Q86UX6)
Chain of STK32C (human) (Q86UX6 whole entry, looked up): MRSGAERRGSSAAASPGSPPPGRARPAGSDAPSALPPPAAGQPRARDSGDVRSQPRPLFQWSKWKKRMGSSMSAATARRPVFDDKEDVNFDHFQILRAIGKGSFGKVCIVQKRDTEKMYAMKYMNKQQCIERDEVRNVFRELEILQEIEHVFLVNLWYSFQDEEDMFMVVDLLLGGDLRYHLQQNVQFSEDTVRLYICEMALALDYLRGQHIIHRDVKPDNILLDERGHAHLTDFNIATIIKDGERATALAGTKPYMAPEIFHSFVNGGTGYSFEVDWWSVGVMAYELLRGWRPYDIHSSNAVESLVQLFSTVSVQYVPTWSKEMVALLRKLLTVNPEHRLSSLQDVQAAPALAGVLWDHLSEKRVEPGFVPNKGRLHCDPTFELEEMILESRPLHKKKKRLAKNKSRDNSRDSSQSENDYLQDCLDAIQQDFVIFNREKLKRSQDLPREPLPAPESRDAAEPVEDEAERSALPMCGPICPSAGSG

NEK6 (human) = NEK6 (human) (UniProt Q9HC98)
ERBB2 (human) = ERBB2 (human) (UniProt P04626)
INSR (human) = INSR (human) (UniProt P06213)
EPHA4 (human) = EPHA4 (human) (UniProt P54764)
MAPK3 (human) = MAPK3 (human) (UniProt P27361)
FGFR3 (human) = FGFR3 (human) (UniProt P22607)
PHKG2 (human) = PHKG2 (human) (UniProt P15735)
ERBB4 (human) = ERBB4 (human) (UniProt Q15303)
CDC42BPA (human) = CDC42BPA (human) (UniProt Q5VT25)
PTK2 (human) = PTK2 (human) (UniProt Q05397)
FGFR2 (human) = FGFR2 (human) (UniProt P21802)
Chain of FGFR2 (human) (P21802 whole entry, looked up): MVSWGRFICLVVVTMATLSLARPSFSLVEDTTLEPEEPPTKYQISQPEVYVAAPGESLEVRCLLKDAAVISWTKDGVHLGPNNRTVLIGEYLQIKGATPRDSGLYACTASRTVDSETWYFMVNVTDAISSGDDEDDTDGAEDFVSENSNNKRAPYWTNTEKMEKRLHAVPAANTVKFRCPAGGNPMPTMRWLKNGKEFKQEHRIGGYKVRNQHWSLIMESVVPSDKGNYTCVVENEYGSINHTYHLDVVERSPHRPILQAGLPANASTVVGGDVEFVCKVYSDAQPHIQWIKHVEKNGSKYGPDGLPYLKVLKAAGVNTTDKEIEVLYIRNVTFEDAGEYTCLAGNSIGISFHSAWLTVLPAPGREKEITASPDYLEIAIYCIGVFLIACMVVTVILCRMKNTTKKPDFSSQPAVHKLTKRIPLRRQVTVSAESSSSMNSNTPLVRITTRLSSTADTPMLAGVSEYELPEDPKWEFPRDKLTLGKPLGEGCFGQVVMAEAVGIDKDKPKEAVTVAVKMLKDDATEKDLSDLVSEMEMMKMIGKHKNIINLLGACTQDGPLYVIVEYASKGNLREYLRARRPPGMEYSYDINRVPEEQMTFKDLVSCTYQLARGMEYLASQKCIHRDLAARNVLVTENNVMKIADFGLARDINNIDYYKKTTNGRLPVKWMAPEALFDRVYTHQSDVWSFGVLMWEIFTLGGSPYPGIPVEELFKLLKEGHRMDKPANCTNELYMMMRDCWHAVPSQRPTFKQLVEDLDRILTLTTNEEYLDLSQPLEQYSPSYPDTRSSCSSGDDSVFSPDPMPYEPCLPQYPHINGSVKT

AKT2 (human) = AKT2 (human) (UniProt P31751)
CAMK2G (human) = CAMK2G (human) (UniProt Q13555)
PAK7 (human) = PAK7 (human) (UniProt Q9P286)
ADCK3 (human) = ADCK3 (human) (UniProt Q8NI60)
Chain of ADCK3 (human) (Q8NI60 whole entry, looked up): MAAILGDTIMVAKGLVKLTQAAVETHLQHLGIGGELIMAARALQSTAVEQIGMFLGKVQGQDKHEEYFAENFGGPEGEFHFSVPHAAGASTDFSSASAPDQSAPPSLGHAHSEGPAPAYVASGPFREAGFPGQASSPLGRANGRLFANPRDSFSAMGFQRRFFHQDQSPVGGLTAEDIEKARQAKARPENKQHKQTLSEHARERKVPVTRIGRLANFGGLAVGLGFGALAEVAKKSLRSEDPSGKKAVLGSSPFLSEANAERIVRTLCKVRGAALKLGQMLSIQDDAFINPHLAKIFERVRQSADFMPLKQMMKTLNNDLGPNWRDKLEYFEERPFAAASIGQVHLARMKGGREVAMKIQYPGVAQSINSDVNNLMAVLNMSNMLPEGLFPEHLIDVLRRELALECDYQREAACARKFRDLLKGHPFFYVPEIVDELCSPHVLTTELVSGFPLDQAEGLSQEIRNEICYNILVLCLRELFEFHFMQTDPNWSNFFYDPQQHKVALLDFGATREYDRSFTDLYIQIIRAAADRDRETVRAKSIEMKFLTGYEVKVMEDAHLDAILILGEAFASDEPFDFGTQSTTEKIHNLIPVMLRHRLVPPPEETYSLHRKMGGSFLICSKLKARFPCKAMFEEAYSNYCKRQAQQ

LTK (human) = LTK (human) (UniProt P29376)
TGFBR1 (human) = TGFBR1 (human) (UniProt P36897)
PRKCH (human) = PRKCH (human) (UniProt P24723)
STK36 (human) = STK36 (human) (UniProt Q9NRP7)
Chain of STK36 (human) (Q9NRP7 whole entry, looked up): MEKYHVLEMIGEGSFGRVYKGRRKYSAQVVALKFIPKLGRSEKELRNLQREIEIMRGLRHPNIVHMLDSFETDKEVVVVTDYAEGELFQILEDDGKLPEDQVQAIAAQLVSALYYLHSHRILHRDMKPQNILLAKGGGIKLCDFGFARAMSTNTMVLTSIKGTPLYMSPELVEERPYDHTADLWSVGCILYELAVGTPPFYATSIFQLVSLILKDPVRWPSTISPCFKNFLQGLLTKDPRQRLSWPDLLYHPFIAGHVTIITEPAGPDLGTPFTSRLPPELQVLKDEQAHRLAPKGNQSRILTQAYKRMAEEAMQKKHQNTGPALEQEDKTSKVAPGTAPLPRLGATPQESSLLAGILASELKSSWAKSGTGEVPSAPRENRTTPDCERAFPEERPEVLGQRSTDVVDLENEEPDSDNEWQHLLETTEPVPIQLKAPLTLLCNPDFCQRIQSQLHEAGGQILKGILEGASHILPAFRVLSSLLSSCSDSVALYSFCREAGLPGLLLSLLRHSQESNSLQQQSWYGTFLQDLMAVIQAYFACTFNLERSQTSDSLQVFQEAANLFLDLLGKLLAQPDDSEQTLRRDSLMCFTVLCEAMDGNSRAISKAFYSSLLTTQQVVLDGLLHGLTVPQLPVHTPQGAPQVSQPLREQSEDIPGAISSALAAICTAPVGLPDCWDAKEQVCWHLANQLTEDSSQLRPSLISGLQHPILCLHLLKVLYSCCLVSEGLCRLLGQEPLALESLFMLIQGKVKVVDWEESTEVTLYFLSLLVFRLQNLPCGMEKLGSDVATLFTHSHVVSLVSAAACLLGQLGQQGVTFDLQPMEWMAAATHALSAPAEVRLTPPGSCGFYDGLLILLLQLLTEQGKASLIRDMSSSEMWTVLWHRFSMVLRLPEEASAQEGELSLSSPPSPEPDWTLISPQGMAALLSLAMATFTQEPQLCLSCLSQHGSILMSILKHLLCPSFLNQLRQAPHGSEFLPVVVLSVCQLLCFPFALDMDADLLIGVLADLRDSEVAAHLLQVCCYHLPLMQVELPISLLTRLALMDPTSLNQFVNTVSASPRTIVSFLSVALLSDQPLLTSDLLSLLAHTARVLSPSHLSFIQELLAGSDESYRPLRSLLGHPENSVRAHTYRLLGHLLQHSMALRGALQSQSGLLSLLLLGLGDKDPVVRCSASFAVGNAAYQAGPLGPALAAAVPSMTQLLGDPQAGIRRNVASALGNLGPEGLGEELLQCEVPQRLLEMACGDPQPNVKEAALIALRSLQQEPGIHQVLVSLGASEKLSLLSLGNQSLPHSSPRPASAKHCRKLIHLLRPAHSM

Chain of EPHA7 (human) (Q15375 whole entry, looked up): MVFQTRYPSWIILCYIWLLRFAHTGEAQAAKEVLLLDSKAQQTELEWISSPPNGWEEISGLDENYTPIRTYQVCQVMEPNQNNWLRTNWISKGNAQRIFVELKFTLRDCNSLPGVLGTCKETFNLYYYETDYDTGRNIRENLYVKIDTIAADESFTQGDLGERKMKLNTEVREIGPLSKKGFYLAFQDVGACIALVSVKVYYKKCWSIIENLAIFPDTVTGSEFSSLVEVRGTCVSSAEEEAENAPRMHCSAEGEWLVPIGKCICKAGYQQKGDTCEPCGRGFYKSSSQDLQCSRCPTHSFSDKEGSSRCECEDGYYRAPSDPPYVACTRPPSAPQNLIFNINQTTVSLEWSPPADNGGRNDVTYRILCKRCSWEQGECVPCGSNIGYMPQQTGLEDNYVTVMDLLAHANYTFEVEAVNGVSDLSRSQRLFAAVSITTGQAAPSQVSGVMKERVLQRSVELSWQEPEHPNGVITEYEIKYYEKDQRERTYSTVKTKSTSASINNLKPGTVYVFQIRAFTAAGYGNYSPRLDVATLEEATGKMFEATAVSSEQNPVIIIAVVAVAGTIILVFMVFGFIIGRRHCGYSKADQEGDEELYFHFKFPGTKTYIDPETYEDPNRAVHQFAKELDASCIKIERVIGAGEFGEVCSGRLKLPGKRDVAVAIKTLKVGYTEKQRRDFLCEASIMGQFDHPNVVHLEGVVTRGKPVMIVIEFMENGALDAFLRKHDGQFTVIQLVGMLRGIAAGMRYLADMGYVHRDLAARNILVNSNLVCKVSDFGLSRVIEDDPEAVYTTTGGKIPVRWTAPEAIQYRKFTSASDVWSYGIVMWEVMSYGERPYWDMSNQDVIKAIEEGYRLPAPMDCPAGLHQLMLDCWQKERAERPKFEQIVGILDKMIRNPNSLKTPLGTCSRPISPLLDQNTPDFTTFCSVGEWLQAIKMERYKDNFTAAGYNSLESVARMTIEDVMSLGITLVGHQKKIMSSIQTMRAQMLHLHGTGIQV

Row | kinase still bound, per cent of control (PKMYT1 (human)) | kinase still bound, per cent of control (MAP3K4 (human)) | kinase still bound, per cent of control (BMPR1A (human)) | kinase still bound, per cent of control (LIMK1 (human)) | kinase still bound, per cent of control (EPHA7 (human)) | kinase still bound, per cent of control (PAK4 (human)) | kinase still bound, per cent of control (STK32B (human)) | kinase still bound, per cent of control (ADCK4 (human)) | kinase still bound, per cent of control [1] | kinase still bound, per cent of control (PIM1 (human)) | kinase still bound, per cent of control (FGFR1 (human)) | kinase still bound, per cent of control (MAPK14 (human)) | kinase still bound, per cent of control (ROS1 (human)) | kinase still bound, per cent of control (PAK1 (human)) | kinase still bound, per cent of control (PIM2 (human)) | kinase still bound, per cent of control (CAMK2D (human)) | kinase still bound, per cent of control (EPHA6 (human)) | kinase still bound, per cent of control (DMPK (human)) | kinase still bound, per cent of control (ACVR1B (human)) | kinase still bound, per cent of control (STK32C (human)) | also measured | SMILES
1 | no effect (inactive) | 28.3% | 4.35% | no effect (inactive) | 0% | 0.2% | 15.4% | no effect (inactive) | 1.8% | 12.8% | 0% | no effect (inactive) | 0% | 4.9% | no effect (inactive) | 2% | 0% | no effect (inactive) | 2% | no effect (inactive) | kinase still bound, per cent of control (AKT1 (human)): no effect (inactive); kinase still bound, per cent of control (NEK6 (human)): no effect (inactive); kinase still bound, per cent of control (ERBB2 (human)): no effect (inactive); kinase still bound, per cent of control (INSR (human)): 0%; kinase still bound, per cent of control (EPHA4 (human)): 3.6%; kinase still bound, per cent of control (MAPK3 (human)): 10.8%; kinase still bound, per cent of control (FGFR3 (human)): 0%; kinase still bound, per cent of control (PHKG2 (human)): 0%; kinase still bound, per cent of control (ERBB4 (human)): 34.7%; kinase still bound, per cent of control (CDC42BPA (human)): no effect (inactive); kinase still bound, per cent of control (PTK2 (human)): 0%; kinase still bound, per cent of control (FGFR2 (human)): 0.1%; kinase still bound, per cent of control (AKT2 (human)): no effect (inactive); kinase still bound, per cent of control (CAMK2G (human)): 0.2%; kinase still bound, per cent of control (PAK7 (human)): 0%; kinase still bound, per cent of control (ADCK3 (human)): 27.2%; kinase still bound, per cent of control (LTK (human)): 0%; kinase still bound, per cent of control (TGFBR1 (human)): 0%; kinase still bound, per cent of control (PRKCH (human)): 19.2%; kinase still bound, per cent of control (STK36 (human)): no effect (inactive) | CCS(=O)(=O)Nc1ccc2c(c1)[C@H](/C(=N/c1ccc(CN3CCCCC3)cc1)c1ccccc1)C(=O)N2
2 | no effect (inactive) | no effect (inactive) | no effect (inactive) | no effect (inactive) | no effect (inactive) | no effect (inactive) | no effect (inactive) | no effect (inactive) | no effect (inactive) | no effect (inactive) | no effect (inactive) | 0% | no effect (inactive) | no effect (inactive) | no effect (inactive) | no effect (inactive) | no effect (inactive) | no effect (inactive) | no effect (inactive) | no effect (inactive) | kinase still bound, per cent of control (AKT1 (human)): no effect (inactive); kinase still bound, per cent of control (NEK6 (human)): no effect (inactive); kinase still bound, per cent of control (ERBB2 (human)): no effect (inactive); kinase still bound, per cent of control (INSR (human)): no effect (inactive); kinase still bound, per cent of control (EPHA4 (human)): no effect (inactive); kinase still bound, per cent of control (MAPK3 (human)): no effect (inactive); kinase still bound, per cent of control (FGFR3 (human)): no effect (inactive); kinase still bound, per cent of control (PHKG2 (human)): no effect (inactive); kinase still bound, per cent of control (ERBB4 (human)): no effect (inactive); kinase still bound, per cent of control (CDC42BPA (human)): no effect (inactive); kinase still bound, per cent of control (PTK2 (human)): no effect (inactive); kinase still bound, per cent of control (FGFR2 (human)): no effect (inactive); kinase still bound, per cent of control (AKT2 (human)): no effect (inactive); kinase still bound, per cent of control (CAMK2G (human)): no effect (inactive); kinase still bound, per cent of control (PAK7 (human)): no effect (inactive); kinase still bound, per cent of control (ADCK3 (human)): no effect (inactive); kinase still bound, per cent of control (LTK (human)): no effect (inactive); kinase still bound, per cent of control (TGFBR1 (human)): no effect (inactive); kinase still bound, per cent of control (PRKCH (human)): no effect (inactive); kinase still bound, per cent of control (STK36 (human)): no effect (inactive) | Cc1ccc(NC(=O)c2cccc(N3CCCCC3)c2)cc1-c1ccc(C(=O)NCC2CC2)cc1
3 | no effect (inactive) | no effect (inactive) | no effect (inactive) | no effect (inactive) | no effect (inactive) | no effect (inactive) | no effect (inactive) | no effect (inactive) | no effect (inactive) | no effect (inactive) | no effect (inactive) | no effect (inactive) | no effect (inactive) | no effect (inactive) | no effect (inactive) | no effect (inactive) | no effect (inactive) | no effect (inactive) | no effect (inactive) | no effect (inactive) | kinase still bound, per cent of control (NEK6 (human)): no effect (inactive); kinase still bound, per cent of control (ERBB2 (human)): no effect (inactive); kinase still bound, per cent of control (INSR (human)): no effect (inactive); kinase still bound, per cent of control (EPHA4 (human)): no effect (inactive); kinase still bound, per cent of control (MAPK3 (human)): no effect (inactive); kinase still bound, per cent of control (FGFR3 (human)): no effect (inactive); kinase still bound, per cent of control (PHKG2 (human)): no effect (inactive); kinase still bound, per cent of control (ERBB4 (human)): no effect (inactive); kinase still bound, per cent of control (CDC42BPA (human)): no effect (inactive); kinase still bound, per cent of control (PTK2 (human)): no effect (inactive); kinase still bound, per cent of control (FGFR2 (human)): no effect (inactive); kinase still bound, per cent of control (AKT2 (human)): no effect (inactive); kinase still bound, per cent of control (CAMK2G (human)): no effect (inactive); kinase still bound, per cent of control (PAK7 (human)): no effect (inactive); kinase still bound, per cent of control (ADCK3 (human)): no effect (inactive); kinase still bound, per cent of control (LTK (human)): no effect (inactive); kinase still bound, per cent of control (TGFBR1 (human)): no effect (inactive); kinase still bound, per cent of control (PRKCH (human)): no effect (inactive); kinase still bound, per cent of control (STK36 (human)): no effect (inactive) | NC(=O)c1ccc(-c2cc(C(N)=O)c(N)c(-c3ccc(S(N)(=O)=O)cc3)c2)cc1
